# Measurements as given in patent US9403843B2, “Cysteine protease inhibitors and uses thereof” (The Trustees of Columbia University in the City of New York, priority 2012, dated 2016).
# Legend:
# [1] = system: calpain-generated spectrin fragments; assay: Spectrin proteolytic degradation products in hippocampi, western blot; type: in vivo
# Procedure: Studies were performed to determine capability of lowering levels of spectrin proteolytic degradation products in hippocampi from adult animals. Using western blot analysis, prevention of calpain-generated spectrin fragments was checked following i.p. treatment for 12 days with 30a, 33 and 50 at the same concentrations used for PK assessment. The array of vehicle samples was obtained by loading samples with 5, 10, 15, and 20 μg total protein/lane. Samples from compound treated animals were loaded at 15 μg/lane.
# [2] = biological target: papain (Carica papaya (Papaya), UniProt P00784); assay: biochemical; type: biochemical
# papain, sequence (P00784 134-345): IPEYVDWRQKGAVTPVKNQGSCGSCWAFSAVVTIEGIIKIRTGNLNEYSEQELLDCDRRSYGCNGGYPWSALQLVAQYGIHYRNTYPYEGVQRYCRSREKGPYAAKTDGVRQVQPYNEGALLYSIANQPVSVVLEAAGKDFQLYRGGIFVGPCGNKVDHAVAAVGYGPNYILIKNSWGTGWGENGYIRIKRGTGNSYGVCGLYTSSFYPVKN
# [3] = system: Aβ-induced LTP impairment; assay: LTP rescue test; settings: assessed at 650 nM
# Procedure: Residual levels of potentiation were averaged during the last 5 min of LTP.
# [4] = biological target: Full length porcine calpain (Sus scrofa (Pig), UniProt P35750); assay: Calpain inhibition kinetics studies (Suc-LLVY-AMC substrate); type: biochemical
# Full length porcine calpain, sequence (P35750 whole entry): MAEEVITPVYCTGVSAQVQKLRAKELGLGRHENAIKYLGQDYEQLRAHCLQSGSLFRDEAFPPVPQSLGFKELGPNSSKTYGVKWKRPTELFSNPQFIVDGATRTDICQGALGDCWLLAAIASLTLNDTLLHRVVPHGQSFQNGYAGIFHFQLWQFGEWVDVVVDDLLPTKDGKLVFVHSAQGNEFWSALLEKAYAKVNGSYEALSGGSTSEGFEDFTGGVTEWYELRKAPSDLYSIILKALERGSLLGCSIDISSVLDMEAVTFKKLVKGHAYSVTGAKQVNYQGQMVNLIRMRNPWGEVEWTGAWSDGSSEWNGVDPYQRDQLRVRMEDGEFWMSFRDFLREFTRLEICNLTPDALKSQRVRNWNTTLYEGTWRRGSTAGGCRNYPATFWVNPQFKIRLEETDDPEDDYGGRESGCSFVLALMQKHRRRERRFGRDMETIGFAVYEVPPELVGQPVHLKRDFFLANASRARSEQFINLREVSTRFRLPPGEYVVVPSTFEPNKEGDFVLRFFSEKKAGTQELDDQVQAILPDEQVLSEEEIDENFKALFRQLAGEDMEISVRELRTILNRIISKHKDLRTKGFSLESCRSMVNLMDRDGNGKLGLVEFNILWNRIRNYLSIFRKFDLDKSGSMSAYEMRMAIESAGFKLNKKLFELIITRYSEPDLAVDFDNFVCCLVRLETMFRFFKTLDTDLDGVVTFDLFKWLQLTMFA
# Full length porcine calpain, sequence (P04574 whole entry partner): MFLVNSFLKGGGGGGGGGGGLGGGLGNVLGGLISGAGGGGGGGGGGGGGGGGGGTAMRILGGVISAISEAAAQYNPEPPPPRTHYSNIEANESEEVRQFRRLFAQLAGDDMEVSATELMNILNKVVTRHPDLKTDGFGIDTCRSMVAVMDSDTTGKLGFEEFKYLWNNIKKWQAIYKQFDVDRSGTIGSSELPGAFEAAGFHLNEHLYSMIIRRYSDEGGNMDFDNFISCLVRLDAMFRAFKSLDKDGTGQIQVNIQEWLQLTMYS
# [5] = ki/Ki calculated relative to E-64
# [6] = mean ± S.D. of triplicate experiments
compound,measurement,setting,value
"O=C(O)C1OC1C(=O)N[C@@H](Cc1cscn1)C(=O)Nc1nc(-c2ccc(F)cc2)cs1 (stereo in doubt) [Compound 33, (2S,3S)-3-((S)-1-(4-(4-fluorophenyl)thiazol-2-ylamino)-1-oxo-3-(thiazol-4-yl)propan-2-ylcarbamoyl)oxirane-2-carboxylic acid]",prevention of spectrin cleavage by calpains in hippocampi,"[1]; i.p. treatment for 12 days, doses as for PK",dramatically reduced the amount of fragments
same,brain penetration,[1]; inferred from hippocampal spectrin cleavage,capable of effectively penetrating the brain
same,Ki,"[2]; apparent equilibrium constant, read-out: K1 Papain",5.3 µM
same,ki Papain,[2]; inhibition rate,14.8 s⁻¹
same,rel Papain,[2]; [5],0.50
same,10^−5 × ki/Ki Papain,[2]; [6],27.9 ± 4.7
same,potency for LTP rescue compared with E64,[3],surpassed E64
same,Ki,"[4]; apparent equilibrium constant, full length Cal1, read-out: K1 Calpain1",2.6 µM
same,ki Calpain1,"[4]; inhibition rate, full length Cal1",0.08 s⁻¹
same,relative selectivity for inhibition of Cal1 over papain (in words),"[4]; ki/Ki as measure, compared with E-64",Cal1 selectivity
same,rel Calpain1,[4]; [5],0.98
same,10^−4 × ki/Ki Calpain1,[4]; [6],2.96 ± 0.14
